Target: T1, ASGP receptor (biotinylated ASGPR) (Homo sapiens, UniProt P07306)
T1 construct: biotin (biotinylated)
T1 sequence (P07306 1-291): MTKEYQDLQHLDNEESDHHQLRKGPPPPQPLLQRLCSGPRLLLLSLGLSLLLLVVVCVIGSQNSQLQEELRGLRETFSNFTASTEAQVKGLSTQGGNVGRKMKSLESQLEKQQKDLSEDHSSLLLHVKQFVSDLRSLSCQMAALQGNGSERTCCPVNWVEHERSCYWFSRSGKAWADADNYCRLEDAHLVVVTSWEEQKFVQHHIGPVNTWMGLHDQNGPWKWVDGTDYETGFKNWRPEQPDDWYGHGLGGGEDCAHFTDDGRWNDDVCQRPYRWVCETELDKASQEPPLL
Assay type: binding
Settings: SPR, Biacore 8K, 25° C.; Table 1A; read-out: ASGPR KD

| Structure (SMILES) | Kd |
| --- | --- |
| OC[C@H]1O[C@H](Cc2ccccc2)[C@@H](Nc2nccc(C(F)(F)F)n2)[C@@H](O)[C@H]1O [A104] | 10 to 100 µM |
| NCCOCCOCC(=O)NC[C@H]1OC[C@H](Nc2cncc(C(F)(F)F)n2)[C@@H](O)[C@H]1O [A57, 2-(2-(2-aminoethoxy)ethoxy)-N-(((2R,3R,4R,5S)-3,4-dihydroxy-5-((6-(trifluoromethyl)pyrazin-2-yl)amino)tetrahydro-2H-pyran-2-yl)methyl)acetamide] | < 10 µM |
| O=C(O)c1ccc(-c2ccc(C(=O)NC[C@H]3OC[C@H](Nc4cncc(C(F)(F)F)n4)[C@@H](O)[C@H]3O)cc2)cc1 [A38, 4′-((((2R,3R,4R,5S)-3,4-dihydroxy-5-((6-(trifluoromethyl)pyrazin-2-yl)amino)tetrahydro-2H-pyran-2-yl)methyl)carbamoyl)-[1,1′-biphenyl]-4-carboxylic acid] | < 10 µM |
| O=C(NC[C@H]1OC[C@H](Nc2cncc(C(F)(F)F)n2)[C@@H](O)[C@H]1O)c1n[nH]c2ccccc12 [A44, N-(((2R,3R,4R,5S)-3,4-dihydroxy-5-((6-(trifluoromethyl)pyrazin-2-yl)amino)tetrahydro-2H-pyran-2-yl)methyl)-1H-indazole-3-carboxamide] | < 10 µM |
| O=C(O)c1ccc(N2CCC(CN3CCN(C[C@H]4OC[C@H](Nc5cncc(C(F)(F)F)n5)[C@@H](O)[C@H]4O)CC3)CC2)nn1 [A16, 6-(4-((4-(((2R,3R,4R,5S)-3,4-dihydroxy-5-((6-(trifluoromethyl)pyrazin-2-yl)amino)tetrahydro-2H-pyran-2-yl)methyl)piperazin-1-yl)methyl)piperidin-1-yl)pyridazine-3-carboxylic acid] | < 10 µM |
| O=C(O)c1ccc(N2CCC(CN3CCN(C[C@H]4OC[C@H](Nc5nc(C(F)(F)F)ccc5F)[C@@H](O)[C@H]4O)CC3)CC2)cc1 [A101, 4-(4-((4-(((2R,3R,4R,5S)-5-((3-fluoro-6-(trifluoromethyl)pyridin-2-yl)amino)-3,4-dihydroxytetrahydro-2H-pyran-2-yl)methyl)piperazin-1-yl)methyl)piperidin-1-yl)benzoic acid] | < 10 µM |
| O=C(O)COCC(=O)NC[C@H]1OC[C@H](Nc2cncc(C(F)(F)F)n2)[C@@H](O)[C@H]1O [A30, 2-(2-((((2R,3R,4R,5S)-3,4-dihydroxy-5-((6-(trifluoromethyl)pyrazin-2-yl)amino)tetrahydro-2H-pyran-2-yl)methyl)amino)-2-oxoethoxy)acetic acid] | < 10 µM |
| O=C(O)COCCOCCOCC(=O)NC[C@H]1OC[C@H](Nc2cncc(C(F)(F)F)n2)[C@@H](O)[C@H]1O [A33] | < 10 µM |
| O=C(NC[C@H]1OC[C@H](Nc2cncc(C(F)(F)F)n2)[C@@H](O)[C@H]1O)c1ccc2c(n1)CCCN2 [A88, N-(((2R,3R,4R,5S)-3,4-dihydroxy-5-((6-(trifluoromethyl)pyrazin-2-yl)amino)tetrahydro-2H-pyran-2-yl)methyl)-5,6,7,8-tetrahydro-1,5-naphthyridine-2-carboxamide] | < 10 µM |
| O=C(NC[C@H]1OC[C@H](Nc2cncc(C(F)(F)F)n2)[C@@H](O)[C@H]1O)c1ccc2[nH]cnc2c1 [A6, N-(((2R,3R,4R,5S)-3,4-dihydroxy-5-((6-(trifluoromethyl)pyrazin-2-yl)amino)tetrahydro-2H-pyran-2-yl)methyl)-1H-benzo[d]imidazole-5-carboxamide] | < 10 µM |
| O=C(NC[C@H]1OC[C@H](Nc2cncc(C(F)(F)F)n2)[C@@H](O)[C@H]1O)c1ccc2occc2c1 [A11, N-(((2R,3R,4R,5S)-3,4-dihydroxy-5-((6-(trifluoromethyl)pyrazin-2-yl)amino)tetrahydro-2H-pyran-2-yl)methyl)benzofuran-5-carboxamide] | < 10 µM |

Same assay, conditions: SPR, Biacore 8K, 25° C.; Table 1B; read-out: ASGPR Kd

| Structure (SMILES) | Kd |
| --- | --- |
| O=C(OCc1ccccc1)N1C[C@H](Nc2cncc(C(F)(F)F)n2)[C@@H](O)[C@@H](O)C1 [A149, benzyl (3S,4R,5S)-3,4-dihydroxy-5-((6-(trifluoromethyl)pyrazin-2-yl)amino)piperidine-1-carboxylate] | < 10 µM |
| O[C@@H]1[C@H](O)[C@@H](Nc2cncc(C(F)(F)F)n2)CO[C@@H]1CF [A162, (2S,3R,4R,5S)-2-(fluoromethyl)-5-((6-(trifluoromethyl)pyrazin-2-yl)amino)tetrahydro-2H-pyran-3,4-diol] | < 10 µM |
| O=C(c1ccc(Cc2ccccc2)cc1)N1C[C@H](Nc2cncc(C(F)(F)F)n2)[C@@H](O)[C@@H](O)C1 [A148, (4-benzylphenyl)((3S,4R,5S)-3,4-dihydroxy-5-((6-(trifluoromethyl)pyrazin-2-yl)amino)piperidin-1-yl)methanone] | < 10 µM |
| OC[C@H]1OC[C@H](Nc2cccc(OC(F)(F)F)n2)[C@@H](O)[C@H]1O [A143, (2R,3R,4R,5S)-2-(hydroxymethyl)-5-((6-(trifluoromethoxy)pyridin-2-yl)amino)tetrahydro-2H-pyran-3,4-diol] | < 10 µM |

Same assay, conditions: SPR, Biacore 8K, 25° C.; Table 1C; read-out: ASGPR KD

| Structure (SMILES) | Kd |
| --- | --- |
| O=C(O)c1c(F)cc(CN2CCN(C[C@H]3OC[C@H](Nc4cncc(C(F)(F)F)n4)[C@@H](O)[C@H]3O)CC2)cc1F [A251] | < 10 µM |
| O[C@@H]1[C@H](O)[C@@H](Nc2cncc(C(F)(F)F)n2)CO[C@@H]1c1cn(-c2ccccc2)nn1 [A201, (2R,3R,4R,5S)-2-(1-phenyl-1H-1,2,3-triazol-4-yl)-5-((6-(trifluoromethyl)pyrazin-2-yl)amino)tetrahydro-2H-pyran-3,4-diol] | < 10 µM |
| O=C(O)c1ccc(N2CCN(C[C@H]3OC[C@H](Nc4cncc(C(F)(F)F)n4)[C@@H](O)[C@H]3O)CC2)nn1 [A207, 6-(4-(((2R,3R,4R,5S)-3,4-dihydroxy-5-((6-(trifluoromethyl)pyrazin-2-yl)amino)tetrahydro-2H-pyran-2-yl)methyl)piperazin-1-yl)pyridazine-3-carboxylic acid] | < 10 µM |
| N#Cc1ncc(OC[C@H]2OC[C@H](Nc3cncc(C(F)(F)F)n3)[C@@H](O)[C@H]2O)cn1 [A203, 5-(((2R,3R,4R,5S)-3,4-dihydroxy-5-((6-(trifluoromethyl)pyrazin-2-yl)amino)tetrahydro-2H-pyran-2-yl)methoxy)pyrimidine-2-carbonitrile] | < 10 µM |
| O=C(O)c1ccc(CN2CCN(C[C@H]3OC[C@H](Nc4cncc(C(F)(F)F)n4)[C@@H](O)[C@H]3O)CC2)cc1 [A199, 4-((4-(((2R,3R,4R,5S)-3,4-dihydroxy-5-((6-(trifluoromethyl)pyrazin-2-yl)amino)tetrahydro-2H-pyran-2-yl)methyl)piperazin-1-yl)methyl)benzoic acid] | < 10 µM |

The next lines start with the values.

| Kd | Structure (SMILES) |
| --- | --- |
| < 10 µM | C[C@H]1O[C@H](C#CCO)[C@H](Oc2cccc(C(F)(F)F)n2)[C@@H](O)[C@H]1O [A286] |
| < 10 µM | C[C@H]1O[C@H](C#Cc2ccc(C(=O)O)nn2)[C@H](Oc2cccc(C(F)(F)F)n2)[C@@H](O)[C@H]1O [A331] |
| < 10 µM | C[C@H]1O[C@H](c2ccccc2)[C@H](Oc2cccc(C(F)(F)F)n2)[C@@H](O)[C@H]1O [A252] |
| < 10 µM | O=C1c2sccc2CN1C[C@H]1OC[C@H](Oc2cccc(C(F)(F)F)n2)[C@@H](O)[C@H]1O [A291] |
| < 10 µM | O[C@@H]1[C@H](O)[C@@H](Oc2cccc(C(F)(F)F)n2)CO[C@@H]1CN1Cc2ccccc2C1 [A274] |
| < 10 µM | O[C@@H]1[C@H](O)[C@@H](Oc2cccc(C(F)(F)F)n2)CO[C@@H]1CN1CCc2ccccc2C1 [A254] |
| < 10 µM | CC[C@]1(COc2ccc(C(=O)O)nn2)O[C@H](O)[C@H](Nc2cccc(C(F)(F)F)n2)[C@@H](O)[C@H]1O [A314] |
| < 10 µM | O[C@@H]1[C@H](O)[C@@H](Nc2cccc(C(F)(F)F)n2)CO[C@@H]1CN1CCC1 [A279] |
| < 10 µM | C[C@H]1O[C@H](c2ccc3c(c2)CCC3)[C@H](Oc2cccc(C(F)(F)F)n2)[C@@H](O)[C@H]1O [A340] |
| < 10 µM | O[C@@H]1[C@H](O)[C@@H](Nc2cccc(C(F)(F)F)n2)CO[C@@H]1CN1CCCCC1 [A241] |
| < 10 µM | CN1CCN(C[C@H]2OC[C@H](Oc3cccc(C(F)(F)F)n3)[C@@H](O)[C@H]2O)CC1 [A249] |
| < 10 µM | O[C@@H]1[C@H](O)[C@@H](Oc2cccc(C(F)(F)F)n2)CO[C@@H]1CSc1ccccn1 [A307] |

Same assay, conditions: SPR, Biacore 8K, 25° C.; Table 1D; read-out: ASGPR KD

| Structure (SMILES) | Kd |
| --- | --- |
| O=C(OCc1ccccc1)N1CCC(N2C[C@H](Nc3cccc(C(F)(F)F)n3)[C@@H](O)[C@@H](O)C2)C(F)(F)C1 (stereo partly shown) [A412] | < 10 µM |
| O=C(CCCCC(=O)N1C[C@H](Nc2cncc(C(F)(F)F)n2)[C@@H](O)[C@@H](O)C1)OCc1ccccc1 [A404] | < 10 µM |
| CC(C)(C)OC(=O)N1CCC(N2C[C@H](Nc3cccc(C(F)(F)F)n3)[C@@H](O)[C@@H](O)C2)CC1 [A397] | < 10 µM |
| O=C(O)c1ccc(-c2ccc(CN3C[C@H](Nc4cncc(C(F)(F)F)n4)[C@@H](O)[C@@H](O)C3)cc2)cc1 [A387] | < 10 µM |

More lines, now with the values ahead:

| Kd | Structure (SMILES) |
| --- | --- |
| < 10 µM | C[C@H]1O[C@H](c2cc(-c3ccccc3)no2)[C@H](Oc2cccc(C(F)(F)F)n2)[C@@H](O)[C@H]1O [A346] |
| < 10 µM | O[C@@H]1[C@@H](Oc2cccc(C(F)(F)F)n2)CN(c2cnccn2)C[C@@H]1O [A425] |
| < 10 µM | O[C@@H]1[C@@H](Oc2cccc(C(F)(F)F)n2)CNC[C@@H]1O [A388] |

Same assay, conditions: SPR, Biacore 8K, 25° C.; Table 1E; read-out: ASGPR KD

| Structure (SMILES) | Kd |
| --- | --- |
| C[C@H]1O[C@H](COc2ccc(C(=O)O)nn2)[C@H](Oc2cccc(C(F)(F)F)n2)[C@@H](O)[C@H]1O [A444] | < 10 µM |
| C[C@H]1O[C@H](C#N)[C@H](Oc2cccc(C(F)(F)F)n2)[C@@H](O)[C@H]1O [A432] | < 10 µM |
| O=C(O)c1cnc(OC[C@@]23CO[C@@H](O2)[C@H](Nc2cncc(C(F)(F)F)n2)[C@@H](O)[C@H]3O)cn1 [A452] | < 10 µM |
| C[C@H]1O[C@H](c2nc(-c3ccccc3)no2)[C@H](Oc2cccc(C(F)(F)F)n2)[C@@H](O)[C@H]1O [A451] | < 10 µM |

From US20260083851A1 (AVILAR THERAPEUTICS, INC., priority 2022, published 2026)
